Test system: myocardial infarction-induced rats
Experiment: Relative perfusion of the heart (99mTc-tetrofosmin autoradiography) in myocardial infarction model rats
Assay type: in vivo, Sprague-Dawley rats
Details: 200 μL through an apical puncture, after one week
Description: First, 8-week-old Sprague-Dawley rats were purchased from Orientbio Inc., and acclimated for 3 days under conditions such as a temperature of 22±3° C., a relative humidity of 60±20%, an air ventilation cycle of 10 to 20 times/hour, a 12-hour light/dark cycle (light on 08:00 A.M. and light off 08:00 P.M.), sterile feed, and water supplies. […] After a week, ^99mtechnetium (Tc)-tetrofosmin was used as a myocardial perfusion imaging agent to obtain an autoradiographic images of rat hearts, and the relative perfusion was measured using a method represented by the following Equation 1 to evaluate an therapeutic effect of the VEGF-derived peptide. Relative perfusion (%)={(Activity value of ^99mTc-tetrofosmin in cardiac ischemic area)/Activity value of ^99mTc-tetrofosmin in septum)}×100 [Equation 1]
All the subsequent statistical analyses were performed using SAS ver. 9.2 (SAS Institute, Cary, US), the significance of difference was determined using a Duncan's multiple range test (MRT) and ANOVA, and a significant difference at p<0.05 was evaluated. All data was assumed to be significant within a range of 5%, and represented by an average±standard deviation (SD).

Ac-MRIKPHQGQHI-NH2 [VEGF-derived peptide]
perfusion-improving effect (relative perfusion) compared to the control (PBS): significant results were not observed
